Activity calls are given as the source filed them. The calls are words filed in the database; no cut-off is given here.
Tests used:
[1] = target: T1, Sodium/glucose cotransporter 2 (Homo sapiens, UniProt P31639); assay: Inhibition of SGLT2 (unknown origin)
T1 sequence (P31639 whole entry): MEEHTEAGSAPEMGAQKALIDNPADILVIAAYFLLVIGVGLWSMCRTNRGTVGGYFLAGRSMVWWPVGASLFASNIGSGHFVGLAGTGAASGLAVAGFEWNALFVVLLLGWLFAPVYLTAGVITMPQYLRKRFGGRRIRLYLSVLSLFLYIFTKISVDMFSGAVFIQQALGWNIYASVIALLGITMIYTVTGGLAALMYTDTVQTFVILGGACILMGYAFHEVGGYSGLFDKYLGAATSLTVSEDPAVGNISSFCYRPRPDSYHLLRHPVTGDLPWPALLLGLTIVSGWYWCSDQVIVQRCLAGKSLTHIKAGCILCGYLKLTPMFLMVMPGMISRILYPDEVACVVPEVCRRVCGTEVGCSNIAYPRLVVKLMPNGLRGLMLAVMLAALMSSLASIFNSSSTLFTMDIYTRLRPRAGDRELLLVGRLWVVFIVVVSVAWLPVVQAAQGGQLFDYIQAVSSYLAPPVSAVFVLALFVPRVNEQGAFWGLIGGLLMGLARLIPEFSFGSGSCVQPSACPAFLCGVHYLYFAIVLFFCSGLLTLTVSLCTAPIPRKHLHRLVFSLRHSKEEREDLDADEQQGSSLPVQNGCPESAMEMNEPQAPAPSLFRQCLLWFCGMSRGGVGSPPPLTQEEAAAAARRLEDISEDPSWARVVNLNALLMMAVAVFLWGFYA

[2] = target: T2, Sodium/glucose cotransporter 2 (Homo sapiens) (UniProt P31639); assay: Inhibition of SGLT2 in HEK293 cells assessed as 2-NBDG uptake at 100 uM preincubated for 1 hr followed by 2-NBDG addition and measured after 1 hr relative to control; type: cell-based; conditions: time 2.0 hrs
T2 sequence (whole entry): T1 sequence (P31639 whole entry)

[3] = tested on: HEK293; assay: Cytotoxicity against HEK293 cells at 100 uM incubated for 24 hrs by MTT assay; type: toxicity, cell-based; conditions: human, hek293, 24 h
[4] = tested on: Mus musculus; assay: Antidiabetic activity against C57BL/6J mouse assessed as decrease in renal glucose level at 3 mg/kg, po measured upto 8 hrs by glucometer analysis; type: functional, organism-based
[5] = tested on: Mus musculus; assay: Antidiabetic activity against C57BL/6J mouse assessed as decrease in blood glucose level at 3 mg/kg, po measured upto 8 hrs by glucometer analysis; type: functional, organism-based
[6] = target: T2, Sodium/glucose cotransporter 2 (Homo sapiens); assay: Inhibition of SGLT2 (unknown origin) at 100 uM relative to control
[7] = Half life in mouse at 3 mg/kg, po by LC analysis; type: ADME, organism-based; conditions: in vivo
[8] = Cmax in mouse at 3 mg/kg, po by LC analysis; type: ADME, organism-based; set-up: dose 3 mg/kg, route po; conditions: in vivo
[9] = Tmax in mouse at 3 mg/kg, po by LC analysis; type: ADME, organism-based; conditions: in vivo
[10] = AUCinfinity in mouse at 3 mg/kg, po by LC analysis; type: ADME, organism-based; set-up: dose 3 mg/kg, route po; conditions: in vivo

IC50 [1] | inhibition [2] | Structure (SMILES) | Activity [3] | also measured
4.4 nM | – | Cc1cc(O)c(C(=O)CCc2ccc3occc3c2)c(O[C@@H]2O[C@H](CO)[C@@H](O)[C@H](O)[C@H]2O)c1 | – | –
2.4 nM | > 90% | Cc1ccc([C@@H]2O[C@H](CO)[C@@H](O)[C@H](O)[C@H]2O)cc1Cc1ccc(-c2ccc(F)cc2)s1 [CANAGLIFLOZIN ANHYDROUS] | – | –
– | 54% | Cc1ccc(S[C@@H]2O[C@H](CO)[C@@H](O)[C@H](O)[C@H]2O)cc1Cc1ccc(-c2ccc(F)cc2)s1 | Non-Toxic | –
– | – | OC[C@H]1O[C@@H](c2ccc(Cl)c(Cc3ccc(O[C@H]4CCOC4)cc3)c2)[C@H](O)[C@@H](O)[C@@H]1O | – | Activity [4]: Active; Activity [5]: Active
– | 62% | OC[C@H]1O[C@@H](Sc2ccc(Cl)c(Cc3ccc(O[C@H]4CCOC4)cc3)c2)[C@H](O)[C@@H](O)[C@@H]1O | Non-Toxic | inhibition [6]: 62%
2 nM | > 90% | OC[C@H]1O[C@@H](Sc2cccc(Cl)c2Cc2ccc(O[C@H]3CCOC3)cc2)[C@H](O)[C@@H](O)[C@@H]1O | Non-Toxic | half-life [7]: 3.67 h; Cmax [8]: 4200 ng/mL; Tmax [9]: 1 h; Activity [4]: Active; Activity [5]: Active; AUC(0-inf) [10]: 12800 ng·h/mL
7.5 nM | – | CCOC(=O)OC[C@H]1O[C@@H](Oc2ccccc2Cc2ccc(OC)cc2)[C@H](O)[C@@H](O)[C@@H]1O [SERGLIFLOZIN ETABONATE] | – | –
5.9 nM | > 90% | COc1ccc(Cc2ccccc2S[C@@H]2O[C@H](CO)[C@@H](O)[C@H](O)[C@H]2O)cc1 | Non-Toxic | –
– | 57% | CCOc1ccc(Cc2cc(S[C@@H]3O[C@H](CO)[C@@H](O)[C@H](O)[C@H]3O)ccc2Cl)cc1 | Non-Toxic | –
2.5 nM | > 90% | Cc1cccc(S[C@@H]2O[C@H](CO)[C@@H](O)[C@H](O)[C@H]2O)c1Cc1ccc(-c2ccc(F)cc2)s1 | Non-Toxic | –
2.6 nM | > 90% | CCOc1ccc(Cc2c(Cl)cccc2S[C@@H]2O[C@H](CO)[C@@H](O)[C@H](O)[C@H]2O)cc1 | Non-Toxic | –
7.5 nM | – | COc1ccc(Cc2ccccc2O[C@@H]2O[C@H](CO)[C@@H](O)[C@H](O)[C@H]2O)cc1 [SERGLIFLOZIN A] | – | –

— ChEMBL document CHEMBL5365435, “Design, Synthesis, and Biological Evaluation of Thioglucoside Analogues of Gliflozin as Potent New Gliflozin Drugs” (J Med Chem, 2023)
